From patent US20250320213A1, “Nitrogen-Containing Heterocyclic Compounds” (Pfizer Inc., priority 2024, published 2025)

Each compound was assayed against T1, STAT6 (Homo sapiens, UniProt P42226) (assay: STAT6 Reporter Luciferase Assay (IL-13 stimulated HaCaT keratinocyte NanoLuc reporter cells)). Conditions: IL-13 stimulated HaCaT STAT6 NanoLuc reporter cells; read-out: Reporter EC50.
T1 construct: stably transfected HaCaT keratinocyte cell line, which expresses NanoLuc luciferase reporter gene under the transcriptional control of the STAT6 responsive promoter; endogenous in cells; host or cells: HaCaT keratinocyte reporter cell line (stably transfected with a NanoLuc reporter)
T1 sequence (P42226 1-847): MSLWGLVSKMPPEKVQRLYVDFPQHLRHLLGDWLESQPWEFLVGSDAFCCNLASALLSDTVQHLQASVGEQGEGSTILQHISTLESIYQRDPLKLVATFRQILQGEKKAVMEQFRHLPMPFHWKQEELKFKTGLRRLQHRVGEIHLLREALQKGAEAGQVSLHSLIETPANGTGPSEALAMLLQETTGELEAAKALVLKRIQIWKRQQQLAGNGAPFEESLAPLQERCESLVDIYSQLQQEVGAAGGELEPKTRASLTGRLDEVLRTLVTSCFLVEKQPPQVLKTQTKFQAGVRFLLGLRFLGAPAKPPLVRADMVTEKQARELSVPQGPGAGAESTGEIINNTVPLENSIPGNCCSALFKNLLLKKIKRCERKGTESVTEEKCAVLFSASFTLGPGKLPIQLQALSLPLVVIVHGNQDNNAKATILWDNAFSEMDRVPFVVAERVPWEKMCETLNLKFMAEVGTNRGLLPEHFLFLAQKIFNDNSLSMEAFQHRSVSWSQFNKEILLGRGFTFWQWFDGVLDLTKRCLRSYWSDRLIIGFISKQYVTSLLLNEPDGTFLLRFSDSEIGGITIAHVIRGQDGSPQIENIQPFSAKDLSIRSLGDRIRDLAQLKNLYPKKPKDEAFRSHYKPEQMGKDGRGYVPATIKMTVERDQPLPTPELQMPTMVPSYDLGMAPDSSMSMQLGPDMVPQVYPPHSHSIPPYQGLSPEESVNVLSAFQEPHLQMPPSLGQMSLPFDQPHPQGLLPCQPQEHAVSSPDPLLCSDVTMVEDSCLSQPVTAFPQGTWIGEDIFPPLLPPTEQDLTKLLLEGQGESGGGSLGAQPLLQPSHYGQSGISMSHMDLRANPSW
Assay type: cell-based
How it was run: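 Luminescence from a NanoLuc reporter driven by the STAT6-responsive IL-13Ra2 promoter in HaCaT keratinocytes serves as the read-out. Compounds are given 2 h before a 4 h stimulation with 0.12 nM IL-13.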

Row | SMILES | EC50
1 | CC(=O)N[C@@H]1CCN(C(=O)c2ccc(N3CCc4c(c(C(=O)NCc5ccc(NC(=O)N(C)C)cc5)nn4C(C)C)C3)nc2)C1 [Example 211, (R)-5-(5-(3-acetamidopyrrolidine-1-carbonyl)pyridin-2-yl)-N-(4-(3,3-dimethylureido)benzyl)-1-isopropyl-4,5,6,7-tetrahydro-1H-pyrazolo[4,3-c]pyridine-3-carboxamide] | 934 nM
2 | CC(C)n1nc(C(=O)NCc2ccc(NC(=O)N(C)C)cc2)c2c1CCN(c1ccc(C(=O)N3C[C@H]4C[C@@H](C3)O4)cn1)C2 [Example 212, 5-(5-((1R,5S)-6-oxa-3-azabicyclo[3.1.1]heptane-3-carbonyl)pyridin-2-yl)-N-(4-(3,3-dimethylureido)benzyl)-1-isopropyl-4,5,6,7-tetrahydro-1H-pyrazolo[4,3-c]pyridine-3-carboxamide] | 278 nM
3 | CCN(CC(=O)NC)C(=O)c1ccc(N2CCc3c(c(C(=O)NCc4ccc(NC(=O)N(C)C)cc4)nn3C(C)C)C2)nc1 [Example 213, N-(4-(3,3-dimethylureido)benzyl)-5-(5-(ethyl(2-(methylamino)-2-oxoethyl)carbamoyl)pyridin-2-yl)-1-isopropyl-4,5,6,7-tetrahydro-1H-pyrazolo[4,3-c]pyridine-3-carboxamide] | 718 nM
4 | CC(C)n1nc(C(=O)NCc2ccc(NC(=O)N(C)C)cc2)c2c1CCN(c1ccc(C(=O)N3CCNC(=O)CC3)cn1)C2 [Example 214, N-(4-(3,3-dimethylureido)benzyl)-1-isopropyl-5-(5-(5-oxo-1,4-diazepane-1-carbonyl)pyridin-2-yl)-4,5,6,7-tetrahydro-1H-pyrazolo[4,3-c]pyridine-3-carboxamide] | 502 nM
5 | CC(C)n1nc(C(=O)NCc2ccc(NC(=O)N(C)C)cc2)c2c1CCN(c1ccc(C(=O)N3CC(O)C3)cn1)C2 [Example 215, N-(4-(3,3-dimethylureido)benzyl)-5-(5-(3-hydroxyazetidine-1-carbonyl)pyridin-2-yl)-1-isopropyl-4,5,6,7-tetrahydro-1H-pyrazolo[4,3-c]pyridine-3-carboxamide] | 276 nM
6 | CO[C@@H]1CCN(C(=O)c2ccc(N3CCc4c(c(C(=O)NCc5ccc(NC(=O)N(C)C)cc5)nn4C(C)C)C3)nc2)C1 [Example 216, (R)-N-(4-(3,3-dimethylureido)benzyl)-1-isopropyl-5-(5-(3-methoxypyrrolidine-1-carbonyl)pyridin-2-yl)-4,5,6,7-tetrahydro-1H-pyrazolo[4,3-c]pyridine-3-carboxamide] | 546 nM
7 | CNC(=O)[C@@H]1CCCN1C(=O)c1ccc(N2CCc3c(c(C(=O)NCc4ccc(NC(=O)N(C)C)cc4)nn3C(C)C)C2)nc1 [Example 222, (S)-N-(4-(3,3-dimethylureido)benzyl)-1-isopropyl-5-(5-(2-(methylcarbamoyl)pyrrolidine-1-carbonyl)pyridin-2-yl)-4,5,6,7-tetrahydro-1H-pyrazolo[4,3-c]pyridine-3-carboxamide] | 1480 nM
8 | CC(C)n1nc(C(=O)NCc2ccc(NC(=O)N(C)C)cc2)c2c1CCN(c1ccc(C(=O)N3CCNC(=O)C3)cn1)C2 [Example 223, N-(4-(3,3-dimethylureido)benzyl)-1-isopropyl-5-(5-(3-oxopiperazine-1-carbonyl)pyridin-2-yl)-4,5,6,7-tetrahydro-1H-pyrazolo[4,3-c]pyridine-3-carboxamide] | 201 nM
9 | CC(=O)N1CCN(C(=O)c2ccc(N3CCc4c(c(C(=O)NCc5ccc(NC(=O)N(C)C)cc5)nn4C(C)C)C3)nc2)CC1 [Example 224, 5-(5-(4-acetylpiperazine-1-carbonyl)pyridin-2-yl)-N-(4-(3,3-dimethylureido)benzyl)-1-isopropyl-4,5,6,7-tetrahydro-1H-pyrazolo[4,3-c]pyridine-3-carboxamide] | 163 nM
10 | COC[C@H]1CCCN1C(=O)c1ccc(N2CCc3c(c(C(=O)NCc4ccc(NC(=O)N(C)C)cc4)nn3C(C)C)C2)nc1 [Example 225, (R)-N-(4-(3,3-dimethylureido)benzyl)-1-isopropyl-5-(5-(2-(methoxymethyl)pyrrolidine-1-carbonyl)pyridin-2-yl)-4,5,6,7-tetrahydro-1H-pyrazolo[4,3-c]pyridine-3-carboxamide] | 644 nM
11 | CC(C)n1nc(C(=O)NCc2ccc(NC(=O)N(C)C)cc2)c2c1CCN(c1ccc(C(=O)N3C[C@@H]4C[C@H]3C(=O)N4)cn1)C2 [Example 227, N-(4-(3,3-dimethylureido)benzyl)-1-isopropyl-5-(5-((1S,4S)-6-oxo-2,5-diazabicyclo[2.2.1]heptane-2-carbonyl)pyridin-2-yl)-4,5,6,7-tetrahydro-1H-pyrazolo[4,3-c]pyridine-3-carboxamide] | > 6120 nM

Continued by falling EC50, values first:

Row | EC50 | SMILES
12 | 3630 nM | CC(C)n1nc(C(=O)NCc2ccc(NC(=O)N(C)C)cc2)c2c1CCN(c1ccc(C(=O)N3CCC(C)(C#N)C3)cn1)C2 (centres unmarked) [Example 240, 5-(5-(3-cyano-3-methylpyrrolidine-1-carbonyl)pyridin-2-yl)-N-(4-(3,3-dimethylureido)benzyl)-1-isopropyl-4,5,6,7-tetrahydro-1H-pyrazolo[4,3-c]pyridine-3-carboxamide]
13 | 2380 nM | CC(C)n1nc(C(=O)NCc2ccc(NC(=O)N(C)C)cc2)c2c1CCN(c1ccc(C(=O)N3CCC[C@@H]3C(N)=O)cn1)C2 [Example 218, (R)-5-(5-(2-carbamoylpyrrolidine-1-carbonyl)pyridin-2-yl)-N-(4-(3,3-dimethylureido)benzyl)-1-isopropyl-4,5,6,7-tetrahydro-1H-pyrazolo[4,3-c]pyridine-3-carboxamide]
14 | 1930 nM | COC1(C)CN(C(=O)c2ccc(N3CCc4c(c(C(=O)NCc5ccc(NC(=O)N(C)C)cc5)nn4C(C)C)C3)nc2)C1 [Example 226, N-(4-(3,3-dimethylureido)benzyl)-1-isopropyl-5-(5-(3-methoxy-3-methylazetidine-1-carbonyl)pyridin-2-yl)-4,5,6,7-tetrahydro-1H-pyrazolo[4,3-c]pyridine-3-carboxamide]
15 | 592 nM | CCNC(=O)CN(C)C(=O)c1ccc(N2CCc3c(c(C(=O)NCc4ccc(NC(=O)N(C)C)cc4)nn3C(C)C)C2)nc1 [Example 229, N-(4-(3,3-dimethylureido)benzyl)-5-(5-((2-(ethylamino)-2-oxoethyl)(methyl)carbamoyl)pyridin-2-yl)-1-isopropyl-4,5,6,7-tetrahydro-1H-pyrazolo[4,3-c]pyridine-3-carboxamide]
16 | 330 nM | CC(C)n1nc(C(=O)NCc2ccc(NC(=O)N(C)C)cc2)c2c1CCN(c1ccc(C(=O)N3C[C@@H]4CCO[C@@H]4C3)cn1)C2 [Example 241, N-(4-(3,3-dimethylureido)benzyl)-5-(5-((3aS,6aS)-hexahydro-2H-furo[2,3-c]pyrrole-5-carbonyl)pyridin-2-yl)-1-isopropyl-4,5,6,7-tetrahydro-1H-pyrazolo[4,3-c]pyridine-3-carboxamide]
17 | 272 nM | CC(C)n1nc(C(=O)NCc2ccc(NC(=O)N(C)C)cc2)c2c1CCN(c1ccc(C(=O)N3CCNC(=O)C3(C)C)cn1)C2 [Example 217, 5-(5-(2,2-dimethyl-3-oxopiperazine-1-carbonyl)pyridin-2-yl)-N-(4-(3,3-dimethylureido)benzyl)-1-isopropyl-4,5,6,7-tetrahydro-1H-pyrazolo[4,3-c]pyridine-3-carboxamide]
18 | 236 nM | CC(C)n1nc(C(=O)NCc2ccc(NC(=O)N(C)C)cc2)c2c1CCN(c1ccc(C(=O)N3C[C@@H]4OCCO[C@@H]4C3)cn1)C2 [Example 239, N-(4-(3,3-dimethylureido)benzyl)-5-(5-((4aR,7aS)-hexahydro-5H-[1,4]dioxino[2,3-c]pyrrole-6-carbonyl)pyridin-2-yl)-1-isopropyl-4,5,6,7-tetrahydro-1H-pyrazolo[4,3-c]pyridine-3-carboxamide]
19 | 227 nM | CC(C)n1nc(C(=O)NCc2ccc(NC(=O)N(C)C)cc2)c2c1CCN(c1ccc(C(=O)N3CCCNC(=O)C3)cn1)C2 [Example 221, N-(4-(3,3-dimethylureido)benzyl)-1-isopropyl-5-(5-(3-oxo-1,4-diazepane-1-carbonyl)pyridin-2-yl)-4,5,6,7-tetrahydro-1H-pyrazolo[4,3-c]pyridine-3-carboxamide]
20 | 116 nM | CC(C)n1nc(C(=O)NCc2ccc(NC(=O)N(C)C)cc2)c2c1CCN(c1ccc(C(=O)N3CCC4(COC4)C3)cn1)C2 [Example 228, 5-(5-(2-oxa-6-azaspiro[3.4]octane-6-carbonyl)pyridin-2-yl)-N-(4-(3,3-dimethylureido)benzyl)-1-isopropyl-4,5,6,7-tetrahydro-1H-pyrazolo[4,3-c]pyridine-3-carboxamide]
